Assay results taken from ChEMBL document CHEMBL1201862, “PubChem BioAssay data set” (2004).
Several values for one entry are separate records, joined by “and”; a condition that tells them apart may be missing. Identical values can stand only once.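 Growth conditions: 96-well plates. Treatment: test compound, 48 hours, 5 concentrations. Analysis: linear interpolation between bracketing concentrations; unreached endpoints set to highest concentration. Here, GI50 denotes the concentration required for 50% inhibition of growth.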 Activity calls are given as the source filed them. Rule as the data show it: active = GI50 up to about 1.1 µM and inactive = higher.

Columns and labels:
Experiment in all cases: DTP human tumour cell line panel, 48 h
[1] = system: RPMI-8226
[2] = system: MOLT-4
[3] = system: SR
[4] = system: HL-60
[5] = system: OVCAR-4
[6] = system: NCI-H460
[7] = system: SNB-19
[8] = system: ACHN
[9] = system: MCF7
[10] = system: SF-539
[11] = system: NCI/ADR-RES
[12] = system: OVCAR-5
[13] = system: TK-10
[14] = system: NCI-H226
[15] = system: SK-MEL-5
[16] = system: A549
[17] = system: SK-MEL-28
[18] = system: CCRF-CEM
[19] = system: T47D
[20] = system: UO-31
[21] = system: CAKI-1
[22] = system: SF-295
[23] = system: HCT-15
[24] = system: NCI-H522
[25] = system: HCC 2998
[26] = system: UACC-257
[27] = system: NCI-H23
[28] = system: OVCAR-3
[29] = system: KM12
[30] = system: K562
[31] = system: PC-3
[32] = system: UACC-62
[33] = system: LOX IMVI
[34] = system: SF-268
[35] = system: HOP-92
[36] = system: SK-MEL-2
[37] = system: 786-0
[38] = system: IGROV-1
[39] = system: HCT-116
[40] = system: SW-620
[41] = system: OVCAR-8
[42] = system: HOP-62
[43] = system: MDA-MB-435
[44] = system: MDA-MB-231
[45] = system: Hs-578T
[46] = system: SNB-75
[47] = system: COLO 205
[48] = system: SN12C
[49] = system: HT-29
[50] = system: M14
[51] = system: U-251
[52] = system: DU-145
[53] = system: SK-OV-3
[54] = system: RXF 393
[55] = system: EKVX
[56] = system: MDA-N
[57] = system: Malme-3M

CC(=O)OCC1OC(Sc2nc(-c3ccc(Cl)cc3)c(C#N)c(=O)n2C2OC(COC(C)=O)C(OC(C)=O)C(OC(C)=O)C2OC(C)=O)C(OC(C)=O)C(OC(C)=O)C1OC(C)=O (centres undefined)
GI50 [1]: 35.9 µM (inactive)
GI50 [2]: 50.4 µM (inactive) and > 26.4 µM (inactive)
GI50 [3]: 30.3 µM (inactive)
GI50 [4]: 3.82 µM (inactive)
GI50 [5]: 3.45 µM (inactive)

CC1(C)N=C(N)N=C(N)N1c1ccc(OCC(=O)Nc2cccc(S(=O)(=O)F)c2)c(Cl)c1
GI50 [6]: 5.48 µM (inactive)
GI50 [7]: 7.8 µM (inactive)
GI50 [8]: 30 µM (inactive)
GI50 [9]: 6.03 µM (inactive)
GI50 [10]: 13.2 µM (inactive)
GI50 [11]: 59.6 µM (inactive)
GI50 [12]: 7.91 µM (inactive)
GI50 [13]: 7.24 µM (inactive)
GI50 [14]: 1.8 µM (inactive)
GI50 [15]: 3.56 µM (inactive)
GI50 [16]: 3.52 µM (inactive)
GI50 [17]: > 70 µM (inactive)
GI50 [18]: 5.37 µM (inactive)
GI50 [19]: 27.2 µM (inactive)
GI50 [20]: 78.5 µM (inactive)
GI50 [21]: 35.8 µM (inactive)
GI50 [22]: 10.2 µM (inactive)
GI50 [23]: 9.75 µM
GI50 [24]: 51.8 µM (inactive)
GI50 [25]: 19.1 µM (inactive)
GI50 [26]: 2.98 µM (inactive)
GI50 [27]: 4.95 µM (inactive)
GI50 [1]: > 33.3 µM (inactive)
GI50 [28]: 18.5 µM (inactive)
GI50 [29]: 17.7 µM (inactive)
GI50 [30]: 1.66 µM (inactive)
GI50 [31]: 1.54 µM (inactive)
GI50 [32]: 0.676 µM (active)
GI50 [33]: 4.9 µM (inactive)
GI50 [34]: 4.78 µM (inactive)
GI50 [2]: 16.3 µM (inactive)
GI50 [35]: 2.25 µM (inactive)
GI50 [36]: > 100 µM (inactive)
GI50 [3]: 2.85 µM (inactive)
GI50 [37]: 4.9 µM (inactive)
GI50 [38]: 7 µM (inactive)
GI50 [4]: 3.75 µM (inactive)
GI50 [39]: 12.6 µM (inactive)
GI50 [40]: 3.71 µM (inactive)
GI50 [41]: 5.82 µM (inactive)
GI50 [42]: 31 µM (inactive)
GI50 [43]: 4.52 µM (inactive)
GI50 [44]: > 31.6 µM (inactive)
GI50 [45]: 12.2 µM (inactive)
GI50 [46]: 54.7 µM (inactive)
GI50 [47]: 15.9 µM (inactive)
GI50 [48]: 8 µM (inactive)
GI50 [5]: > 100 µM (inactive)
GI50 [49]: 5.16 µM (inactive)
GI50 [50]: 13.9 µM (inactive)
GI50 [51]: 13.6 µM (inactive)
GI50 [52]: > 25.1 µM (inactive)
GI50 [53]: > 81.1 µM (inactive)

Cc1n[nH]/c(=N\S(=O)(=O)c2ccc(/N=N/c3c(O)c(C(=O)O)cc4ccccc34)cc2)s1
GI50 [6]: > 100 µM (inactive)
GI50 [7]: > 100 µM (inactive)
GI50 [8]: > 100 µM (inactive)
GI50 [9]: > 100 µM (inactive)
GI50 [10]: > 100 µM (inactive)
GI50 [11]: > 100 µM (inactive)
GI50 [12]: > 100 µM (inactive)
GI50 [13]: > 100 µM (inactive)
GI50 [14]: > 100 µM (inactive)
GI50 [15]: > 100 µM (inactive)
GI50 [16]: > 100 µM (inactive)
GI50 [17]: > 100 µM (inactive)
GI50 [18]: > 100 µM (inactive)
GI50 [19]: > 100 µM (inactive)
GI50 [20]: > 100 µM (inactive)
GI50 [21]: > 100 µM (inactive)
GI50 [54]: > 100 µM (inactive)
GI50 [22]: > 100 µM (inactive)
GI50 [23]: > 100 µM
GI50 [55]: > 100 µM (inactive)
GI50 [24]: > 100 µM (inactive)
GI50 [25]: > 100 µM (inactive)
GI50 [26]: > 100 µM (inactive)
GI50 [27]: > 100 µM (inactive)
GI50 [1]: > 100 µM (inactive)
GI50 [28]: > 100 µM (inactive)
GI50 [29]: > 100 µM (inactive)
GI50 [30]: > 100 µM (inactive)
GI50 [31]: > 100 µM (inactive)
GI50 [32]: > 100 µM (inactive)
GI50 [34]: > 100 µM (inactive)
GI50 [2]: > 100 µM (inactive)
GI50 [35]: > 100 µM (inactive)
GI50 [36]: > 100 µM (inactive)
GI50 [3]: > 100 µM (inactive)
GI50 [37]: > 100 µM (inactive)
GI50 [38]: > 100 µM (inactive)
GI50 [4]: > 100 µM (inactive)
GI50 [39]: > 100 µM (inactive)
GI50 [40]: > 100 µM (inactive)
GI50 [56]: > 100 µM (inactive)
GI50 [41]: > 100 µM (inactive)
GI50 [42]: > 100 µM (inactive)
GI50 [43]: > 100 µM (inactive)
GI50 [44]: > 100 µM (inactive)
GI50 [45]: > 100 µM (inactive)
GI50 [46]: > 100 µM (inactive)
GI50 [47]: > 100 µM (inactive)
GI50 [48]: > 100 µM (inactive)
GI50 [5]: > 100 µM (inactive)
GI50 [49]: > 100 µM (inactive)
GI50 [50]: > 100 µM (inactive)
GI50 [57]: > 100 µM (inactive)
GI50 [51]: > 100 µM (inactive)
GI50 [52]: > 100 µM (inactive)
GI50 [53]: > 100 µM (inactive)
